Reference: article PMC12583094, “A novel antioxidant peptide from black soybean [Glycine max (L.) Merr.] with verified MPO interaction and multi-scale antioxidant activity” (Frontiers in Nutrition, 2025)
Like-named read-outs stand apart in the source and are kept apart here. No end group written: not given here.

Tests used:
[1] = cited from earlier work; for radical scavenging activity: peptides from Thunnus albacares protein hydrolysates; for antioxidant bioactivity: peptides from sturgeon ovarian protein hydrolysates; for antioxidant activity and free radical scavenging: peptides from black soybean processing by-products
From the text: Black soybean [Glycine max (L.) Merr.], belonging to the family Fabaceae, subfamily Faboideae, genus Glycine, and subgenus Soja, is a traditional legume crop characterized by its black seed coat. It has been cultivated in China for thousands of years, and China remains the largest producer and consumer of soybeans globally, with substantial production and consumption of black soybean in particular ([8]).

[2] = DPPH radical scavenging assay; assay type: biochemical; settings: 50 μL + 450 μL of 0.1 mM DPPH in anhydrous ethanol, dark, room temperature, 30 min, 517 nm, mean ± SD, n = 3
Method: Prior to the assay, the microplate reader was preheated for 1 h. The peptide samples were dissolved in sterile water to prepare a concentration gradient of 0.1, 1, 5, and 10 mg/mL. For the DPPH assay, 50 μL of sterile water and 450 μL of DPPH solution (0.1 mM in anhydrous ethanol) were added to the blank tube. For the control tube, 50 μL of peptide solution and 450 μL of anhydrous ethanol were mixed. For the sample tubes, 50 μL of peptide solution and 450 μL of DPPH solution were combined. All mixtures were incubated in the dark at room temperature for 30 min. Absorbance was measured at 517 nm using a UV–visible spectrophotometer.

[3] = ABTS radical scavenging assay; assay type: biochemical; settings: ABTS solution diluted 20-fold with anhydrous ethanol, 30 min dark, 734 nm, mean ± SD, n = 3
Method: For the ABTS assay, ABTS radical solution was prepared by mixing Reagent A and Reagent B (from the assay kit) at a 1:1 volume ratio, followed by incubation in the dark for 12 h. The resulting ABTS solution was diluted 20-fold with anhydrous ethanol before use. The blank, control, and sample solutions were prepared in the same manner as in the DPPH assay, followed by 30 min of dark incubation. Absorbance was measured at 734 nm. The radical scavenging activity was calculated using the formula reported by Thanyaporn Aursuwanna et al. ([22]).

[4] = peptide from cherry seeds; cited from earlier work
[5] = peptide from cherry seeds, molecular dynamics simulation; cited from earlier work
From the text: The root mean square deviation (RMSD) value reflects the deviation of the complex from its initial conformation over the course of the simulation. RMSD fluctuations are directly indicative of conformational stability, with deviations below 0.5 nm generally considered acceptable ([34]). […] In this surface, blue to white regions indicate low free energy value, whereas yellow to red regions reflect higher energy states. […] For the MPO–[…] complex, the energy p ...

[6] = cited from earlier work; for ABTS radical scavenging rate at 1 mg/mL / DPPH radical scavenging rate at 1 mg/mL: peptide from Glycine max hydrolysate
From the text: (§1) Similarly, Zhang et al. identified two antioxidant peptides, VVFVDRL and […], from Glycine max hydrolysate, both of which contain N-terminal valine residues. […] This enhanced activity was attributed to the presence of repeating amino acids within the peptide sequences, a feature that has also been associated with stronger bioactivity in antioxidant peptid ...

MPO = settings: cited from earlier work
From the text: as §1

HaCaT cells [7] = assay type: cell-based, human; settings: 24 h, 1000 μg/mL
Method: HaCaT cell recovery, culture, and subculture were performed with reference to the method described by Yusha Zi et al., with some modifications ([23]). For recovery, cryopreserved HaCaT cells were retrieved from liquid nitrogen storage and quickly thawed in a 37 °C water bath with gentle shaking. Just before complete thawing, the tube was removed from the water bath, and the cell suspension was immediately transferred into a 15 mL centrifuge tube containing 9 mL of pre-warmed complete medium. The complete medium consisted of DMEM supplemented with 10% fetal bovine serum (FBS) and 1% penicillin–streptomycin (P/S). Cells were centrifuged at 800 rpm for 5 min at 4 °C. After discarding the supernatant, the cell pellet was resuspended in 5 mL of fresh complete medium and transferred to a culture flask equipped with a ventilated cap. Cells were incubated in a humidified incubator at 37 °C with 5% CO₂ and 95% humidity. For subculturing, when cell confluence reached approximately 80%, the medium was discarded, and the cells were gently rinsed three times with 2 mL of PBS. […] The plate was incubated for an appropriate period, and the absorbance at 450 nm was measured using a microplate reader. Cell viability was calculated using the following formula: Cell viability(%)=100%×(ODsample−ODblank)/(ODcontrol−ODblank). […] The absorbance was measured and cell viability was calculated under the same conditions.

HaCaT cells [8] = assay: CCK8 cell viability, concentration screening in HaCaT cells; assay type: cell-based, human; settings: 24 h, CCK8, 450 nm, vs control, n = 3
Method: HaCaT cell recovery, culture, and subculture were performed with reference to the method described by Yusha Zi et al., with some modifications ([23]). For recovery, cryopreserved HaCaT cells were retrieved from liquid nitrogen storage and quickly thawed in a 37 °C water bath with gentle shaking. Just before complete thawing, the tube was removed from the water bath, and the cell suspension was immediately transferred into a 15 mL centrifuge tube containing 9 mL of pre-warmed complete medium. The complete medium consisted of DMEM supplemented with 10% fetal bovine serum (FBS) and 1% penicillin–streptomycin (P/S). Cells were centrifuged at 800 rpm for 5 min at 4 °C. After discarding the supernatant, the cell pellet was resuspended in 5 mL of fresh complete medium and transferred to a culture flask equipped with a ventilated cap. Cells were incubated in a humidified incubator at 37 °C with 5% CO₂ and 95% humidity.
For subculturing, when cell confluence reached approximately 80%, the medium was discarded, and the cells were gently rinsed three times with 2 mL of PBS. Then, 1 mL of 0.25% trypsin solution was added, and the flask was incubated at 37 °C for about 1 min. Once the cells became round and partially detached (as observed under a microscope), 3 mL of complete medium was added to terminate the digestion. The cell suspension was gently pipetted to disperse the cells and transferred to a 15 mL centrifuge tube. After centrifugation at 800 rpm for 5 min at 4 °C, the supernatant was discarded. The pellet was resuspended in fresh medium and seeded into new culture flasks at a ratio of 1:3, followed by incubation under the same culture conditions.
After digestion and resuspension, HaCaT cells were seeded into a 96-well plate at a concentration of 1 × 10^^4 cells/ml, with 100 μL of complete culture medium added to each well. Three wells with no cells were treated with an equal volume of complete culture medium as the blank group. The cells were incubated for 24 h to allow attachment. For the experiment, the control and blank groups were replaced with an equal volume of fresh medium, while the treatment groups were treated with a concentration gradient of 100, 200, 500, 1,000, and 1,500 μg/mL H2O2 and peptide samples. The H2O2 group was incubated for 1 h, while the peptide sample group was incubated for 24 h. After incubation, the original medium was discarded, and 100 μL of CCK8 working solution (prepared from 90% DMEM + 10% CCK8 reagent) was added to each well. The blank group, which contained no cells, was used as the reference. The plate was incubated for an appropriate period, and the absorbance at 450 nm was measured using a microplate reader. Cell viability was calculated using the following formula:
Cell viability(%)=100%×(ODsample−ODblank)/(ODcontrol−ODblank).

[9] = peptide from foxtail millet prolamin

Substance: ACGSDGK [antioxidant peptide from Thunnus albacares protein hydrolysates]
- radical scavenging activity [1]: significant radical scavenging activity

Substance: FDWDRL [antioxidant peptide from sturgeon ovarian protein hydrolysates]
- antioxidant bioactivity [1]: demonstrated antioxidant bioactivity

Substance: FEGPPFKF [antioxidant peptide from sturgeon ovarian protein hydrolysates]
- antioxidant bioactivity [1]: demonstrated antioxidant bioactivity

Substance: Glutathione [GSH]
- DPPH radical scavenging rate at 0.1 mg/mL ([2]; 0.1 mg/mL peptide solution): 27.72 ± 2.86%
- DPPH radical scavenging rate at 1 mg/mL ([2]; 1 mg/mL peptide solution): 54.36 ± 3.61%
- DPPH radical scavenging rate at 5 mg/mL ([2]; 5 mg/mL peptide solution): 69.01 ± 4.68%
- DPPH radical scavenging rate at 10 mg/mL ([2]; 10 mg/mL peptide solution): 84.87 ± 1.39%
- ABTS radical scavenging rate at 0.1 mg/mL ([3]; 0.1 mg/mL): 24.52 ± 4.01%
- ABTS radical scavenging rate at 1 mg/mL ([3]; 1 mg/mL): 40.76 ± 3.01%
- ABTS radical scavenging rate at 5 mg/mL ([3]; 5 mg/mL): 60.28 ± 3.58%
- ABTS radical scavenging rate at 10 mg/mL ([3]; 10 mg/mL): 82.92 ± 1.27%

Substance: IVPK [peptide from black soybean processing by-products]
- antioxidant activity and free radical scavenging [1]: exhibited antioxidant activity and free radical scavenging capacity

Substance: KFCSGHA [antioxidant peptide from Thunnus albacares protein hydrolysates]
- radical scavenging activity [1]: significant radical scavenging activity

Substance: LVPK [peptide from black soybean processing by-products]
- antioxidant activity and free radical scavenging [1]: exhibited antioxidant activity and free radical scavenging capacity

Substance: LYSPH [antioxidant peptide LYSPH, derived from cherry seeds]
- docking binding energy [4]: -7.9 kcal/mol
- number of hydrogen bonds [5]: 3 ± 1 hydrogen bonds

Substance: VIYVVDLR [antioxidant peptide from Glycine max hydrolysate]
- ABTS radical scavenging rate at 1 mg/mL [6]: ~50%
- DPPH radical scavenging rate at 1 mg/mL [6]: approximately 40%

Substance: VLIPMP [antioxidant peptide from foxtail millet prolamin]
- number of hydrogen bonds formed with MPO (MPO): higher than that observed for VPNHFNAP
- stability of the VLIPMP–MPO complex (MPO; molecular dynamics simulations): confirmed the stability of the VLIPMP–MPO complex
- binding free energy calculated by MM-PBSA (MPO; with MPO): -40.83 ± 7.64 kcal/mol
- ABTS IC₅₀ [6, 9]: 2.33 mg/mL
- DPPH IC₅₀ [6, 9]: 4.45 mg/mL

Substance: VPNHFNAP
- HaCaT cell viability, peptide pretreatment then H2O2 (HaCaT cells [7]): 64.38 ± 4.22%
- effect on HaCaT cell viability, 1500 μg/mL (HaCaT cells [8]; peptide 1500 μg/mL): a marked decrease
- effect on HaCaT cell viability, 100 to 1,000 μg/mL (HaCaT cells [8]; peptide 100 to 1,000 μg/mL): did not cause significant changes in cell viability

Substance: VVFVDRL [antioxidant peptide from Glycine max hydrolysate]
- ABTS radical scavenging rate at 1 mg/mL [6]: ~50%
- DPPH radical scavenging rate at 1 mg/mL [6]: approximately 40%
